Earlier results in patent US20250099444A1, “Methods of Treating a Subject for Long-Haul COVID-19, and Compositions for Use in the Same” (IncellDx, Inc., priority 2022, published 2025).

Test system: R5-tropic HIV-1

Cc1nnc(C(C)C)n1[C@@H]1C[C@H]2CC[C@@H](C1)N2CC[C@H](NC(=O)C1CCC(F)(F)CC1)c1ccccc1 [maraviroc, 4,4-difluoro-N-[(1S)-3-[(1S,5R)-3-(3-methyl-5-propan-2-yl-1,2,4-triazol-4-yl)-8-azabicyclo[3.2.1]octan-8-yl]-1-phenylpropyl]cyclohexane-1-carboxamide]
incidence of hepatoxicity (MOTIVATE study) (96 weeks of treatment at 300 mg B.I.D): low incidence of hepatoxicity
death and other health threats, long-term follow-up of MOTIVATE trials (>5 year follow-up, HIV patients): limited instances of death and other health threats such as hepatic failure and myocardial infarctions
HIV viral loads (MOTIVATE 1 and MOTIVATE 2) (individuals with R5-tropic HIV-1): lower levels of HIV viral loads
